# Data as given in patent EP0365818A1, “Immunological detection of atrazine and atrazine derivatives” (CIBA-GEIGY AG, priority 1988, dated 1990).
# Columns and labels:
# Assay type in all cases: binding, Maus
# [1] = tested on: MAb 4009-85-3 (ECACC 8808/2503); assay: two-step competitive ELISA (BSA-conjugated hapten on plate), anti-hydroxyatrazine MAb; conditions: for % cross-reactivity (c): (Hydroxyatrazin conc. for 50 % inhibition)/(analogue conc. for 50 % inhibition) x 100; for I 50 ng/ml (a): inhibitor concentration for 50 % inhibition in competitive ELISA
# Source text: (§1) Der prozentuale Anteil der Kreuzreaktivität soll im Rahmen dieser Erfindung definitionsgemäss durch die folgende Beziehung wiedergegeben werden: (Atrazin/Hydroxyatrazinkonzentration für 50 % Hemmung/Konzentration der s-Triazin-/Hydroxytriazinanalogen für 50 % Hemmung) x 100.
# (§2) Eine 50 %ige Hemmung kann beispielsweise mit Hilfe eines kompetitiven ELISA Assays (vgl. Beispiel 8) bestimmt werden. Diese entspricht dann beispielsweise derjenigen Antigenkonzentration, die zu einer 50 %igen Hemmung der Antikörperbindung an das Träger-gebundene Antigen führt.
# (§3) Der Nachweis von Atrazin und Hydroxyatrazin erfolgt mit Hilfe eines zweistufigen, kompetitiven ELISA-Tests.
# (§4) BSA-konjugiertes Hapten wird zunächst in einem Natriumcarbonatpuffer (pH 9,6) (0,2 µg/Vertiefung) an Mikrotiterplatten adsorbiert und über Nacht bei einer Temperatur von 4°C inkubiert. Die restlichen freien Bindungsstellen des festen Trägermaterials werden dann durch Zugabe von BSA in Form einer 1 % Lösung blockiert.
# (§5) Die Platten werden anschliessend mit PBS gewaschen, das mit 0,1 % (v/v) Polysorbat 20 angereichert ist (PBS-Tween).
# (§6) 50 µl der zuvor gereinigten monoklonalen Antikörper (2 µg/ml) oder aber des Ueberstandes der Zellklone (in einer Verdünnung von 1:5 bis 1:22,5) werden a) mit 950 µl einer Standardlösung, die einen steigenden Anteil an Triazin bzw. Triazin-Analogen enthält, b) mit triazinhaltigen Wasserproben oder c) triazinhaltigen Bodenextrakten inkubiert. (Alle Verdünnungen werden in PBS-Tween vorgenommen).
# (§7) Nach einer Inkubationszeit von 1 Stunde bei Raumtemperatur werden 200 µl des Gemisches zu jeder Vertiefung der Mikrotiterplatte zugegeben und der gesamte Ansatz wird für eine weitere Stunde inkubiert.
# (§8) Die Vertiefungen werden anschliessend 5 x gewaschen und mit 100 µl/Vertiefung Ziegen-anti-Maus IgG Antikörper der konjugiert an alkalische Phosphatase vorliegt (Verdünnung 1:1500) beschickt und für einen Zeitraum von 1,5 Stunden inkubiert.
# (§9) Nach erneutem Waschen werden 150 µl/Vertiefung des in 1 mg/ml Diethanolaminpuffer (1 mM, pH 9,8) gelösten Substrates p-Nitrophenylphosphat zu den Vertiefungen zugegeben.
# (§10) Ein Farbumschlag, der proportional ist zur Menge an Antikörper, der mit dem an die Festphase gebundenen Antigen reagiert hat, wird bei einer Wellenlänge von 405 nm aufgezeichnet. Die Verdünnungen der einzelnen Proben werden so gewählt, dass man ohne Zugabe eines Inhibitors (Bo) Absorptionswerte in einem Bereich zwischen 0.3 und 0.5 erhält. Für die Kontrollen (ohne Antikörper und mit nicht nachweisbaren Mengen an Antigen) ergeben sich Werte von R ≦ 0.005. Alle Proben werden in dreifacher Ausfertigung bestimmt.
# (§11) Zur Ermittlung der in einer Probe enthaltenen Menge an Atrazin/Hydroxyatrazin wird zunächst eine Eichkurve erstellt (Abb. 1), wobei B/Bo x 100 gegen die Konzentration an Inhibitor aufgetragen wird. (Bo bedeutet Absorptionsfähigkeit gemessen ohne Zugabe eines Triazininhibitors zum Antikörper, und B Absorptionsfähigkeit bei Zugabe verschieden konzentrierter Triazin-Inhibitoren) Der I₅₀-Wert gibt diejenige Konzentration des Antigens an, bei der die Antikörperbindung an die Festphase zu 50 % gehemmt wird. Der I₅₀-Wert wird mit Hilfe eines auf die vorliegenden Verhältnisse speziell angepassten ENZFITTER (Leatherbarrow, Elsevier-Biosoft)Kurvenkalkulationsprogramms bestimmt, basierend auf einer 4 Parameter umfassenden logistischen Kurve (Raab GM, 1983). Auch die quantitative Atrazin bzw. Hydroxyatrazinbestimmung in Boden- oder Wasserproben im Rahmen des ELISA wird mit Hilfe des ENZFITTER-Programms durchgeführt, wobei die Anpassung der Kurve auf Standards basiert, die auf jeder Mikrotiterplatte mitlaufen.
# [2] = tested on: Mab 4009-77-20 (ECACC 8808/2502); assay: as above; conditions: for % cross-reactivity (c): (Hydroxyatrazin conc. for 50 % inhibition)/(analogue conc. for 50 % inhibition) x 100; for I 50 ng/ml (a): inhibitor concentration for 50 % inhibition in competitive ELISA
# Source text: as §1, §2, §3, §4, §5, §6, §7, §8, §9, §10, §11
# [3] = tested on: MAb 4063-21-1 (ECACC 8808/2501); assay: two-step competitive ELISA (BSA-conjugated hapten on plate), anti-atrazine MAb; conditions: for % cross-reactivity (b): (Atrazin conc. for 50 % inhibition)/(analogue conc. for 50 % inhibition) x 100; for I 50 ng/ml (a): inhibitor concentration for 50 % inhibition in competitive ELISA
# Source text: as §1, §2, §3, §4, §5, §6, §7, §8, §9, §10, §11
Structure (SMILES),% cross-reactivity (c) [1],I 50 ng/ml (a) [1],% cross-reactivity (c) [2],I 50 ng/ml (a) [2],% cross-reactivity (b) [3],I 50 ng/ml (a) [3],I 50 ng/ml (a) ([1]; listed as Hydroxyatrazin) [ng/mL],I 50 ng/ml (a) ([2]; listed as Hydroxyatrazin) [ng/mL]
"CNc1nc(O)nc(NC(C)C)n1 [OH-Desmetryn, Hydroxydesmetryn]","11,9%",8 ng/mL,"71,4%","0,7 ng/ml","0,1%",360 ng/mL,–,–
CCNc1nc(Cl)nc(NC(C)C)n1 [Atrazin],"<0,1%",>1000 ng/mL,"<0,05%",>1000 ng/mL,"100,0%",–,–,–
CCNc1nc(Cl)nc(N(CC)CC)n1 [Trietazin],–,–,–,–,"11,3%",4 ng/mL,–,–
CSc1nc(NC(C)C)nc(NC(C)C)n1 [Prometryn],–,–,–,–,"56,3%","0,8 ng/ml",–,–
CCNc1nc(NC(C)C)nc(OC)n1 [Atraton],"<0,1%",>1000 ng/mL,"<0,05%",>1000 ng/mL,"6,4%",7 ng/mL,–,–
CCNc1nc(NC(C)C)nc(SC)n1 [Ametryn],"<0,1%",>1000 ng/mL,"<0,05%",>1000 ng/mL,"5,0%",9 ng/mL,–,–
CC(C)Nc1nc(Cl)nc(NC(C)C)n1 [Propazin],"<0,1%",>1000 ng/mL,"<0,05%",>1000 ng/mL,"90,0%","0,5 ng/ml",–,–
CCNc1nc(Cl)nc(NC(C)(C)C)n1 [Terbuthylazin],–,–,–,–,"5,0%",9 ng/mL,–,–
CCNc1nc(NCC)nc(SC)n1 [Simetryn],–,–,–,–,"1,7%",27 ng/mL,–,–
"CCNc1nc(O)nc(NCC)n1 [OH-Simazin, Hydroxysimazin]","1,5%",65 ng/mL,"41,7%","1,2 ng/ml","0,3%",180 ng/mL,–,–
COc1nc(NC(C)C)nc(NC(C)C)n1 [Prometon],–,–,–,–,"75,0%","0,6 ng/ml",–,–
"CC(C)Nc1nc(O)nc(NC(C)C)n1 [OH-Propazin, Hydroxypropazin]","100,0%","0,95 ng/ml","83,3%","0,6 ng/ml","8,2%","5,5 ng/ml",–,–
"CCNc1nc(O)nc(NC(C)C)n1 [OH-Atrazin, Hydroxyatrazin]","100,0%","0,95 ng/ml","100,0%","0,5 ng/ml","2,1%",21 ng/mL,0.95,0.5
CCNc1nc(Cl)nc(NCC)n1 [Simazin],–,–,–,–,"2,5%",18 ng/mL,–,–
"CCNc1nc(O)nc(NC(C)(C)C)n1 [OH-Terbuthylazin, Hydroxyterbuthylazin]","5,0%",19 ng/mL,"15,2%","3,3 ng/ml","5,6%",8 ng/mL,–,–
CNc1nc(NC(C)C)nc(SC)n1 [Desmetryn],–,–,–,–,"0,5%",90 ng/mL,–,–
